Experiments:
SHP2 = biological target: T1, SHP2 (Homo sapiens, UniProt Q06124); experiment: Enzyme kinetic study (Michaelis-Menten, Lineweaver-Burk) with DiFMUP; type: biochemical; conditions: Km increased without change in Vmax
T1 construct: the GST fusion of the PTP domains of SHP2, SHP1, and PTP1B were produced and purified as reported by us previously; GST; made in house
T1 sequence (Q06124 247-517 limits assumed): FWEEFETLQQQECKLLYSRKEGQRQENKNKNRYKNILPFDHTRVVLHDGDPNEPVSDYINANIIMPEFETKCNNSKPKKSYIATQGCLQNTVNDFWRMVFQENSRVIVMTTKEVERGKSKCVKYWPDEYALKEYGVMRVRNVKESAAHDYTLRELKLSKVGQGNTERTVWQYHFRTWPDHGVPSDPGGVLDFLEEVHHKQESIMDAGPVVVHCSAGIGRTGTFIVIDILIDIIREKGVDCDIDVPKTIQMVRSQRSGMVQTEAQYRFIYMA
Method: As such, its mechanism of inhibition is expected to be through competitive binding to the active site. To verify this point, we conducted enzyme kinetic studies using the artificial substrate DiFMUP in the presence and absence of CNBCA. Briefly, 400 μM DiFMUP in the PTPase buffer was added to the 12th well in the 96-well plate and then serially diluted to as low as 3.12 μM in the successive wells. After adding the enzyme to a final concentration of 1.0 nM in a total volume of 100 μL, the fluorescence of the enzyme reaction rate was measured for a total of 3 min at 10 s interval in the Synergy 4 plate reader at the excitation and emission wavelengths of 360 and 460 nm, respectively. The data was transformed into relative fluorescence unit (RFU) per second and plotted using the Graphpad software to produce the Michaelis–Menten and the Lineweaver–Burk plots.
In these reactions, the enzyme was added last, and the fluorescence was read for 3 min at 10 s interval. Changes in fluorescence intensity were used to calculate the Km of the SHP2 enzyme for DiFMUP in the presence and absence of CNBCA. The Graphpad Prism was used to prepare the Michaelis–Menten and Lineweaver–Burk plots and to determine the Km values.

PTP1B = biological target: T2, PTP1B (Homo sapiens, UniProt P18031); experiment: Cellular thermal shift assay (CETSA), nontarget PTP1B immunoblot; type: binding; conditions: 100 μM CNBCA, cell lysate
T2 construct: compared it with the nontarget PTP1B protein; endogenous in cells
T2 sequence (P18031 1-435): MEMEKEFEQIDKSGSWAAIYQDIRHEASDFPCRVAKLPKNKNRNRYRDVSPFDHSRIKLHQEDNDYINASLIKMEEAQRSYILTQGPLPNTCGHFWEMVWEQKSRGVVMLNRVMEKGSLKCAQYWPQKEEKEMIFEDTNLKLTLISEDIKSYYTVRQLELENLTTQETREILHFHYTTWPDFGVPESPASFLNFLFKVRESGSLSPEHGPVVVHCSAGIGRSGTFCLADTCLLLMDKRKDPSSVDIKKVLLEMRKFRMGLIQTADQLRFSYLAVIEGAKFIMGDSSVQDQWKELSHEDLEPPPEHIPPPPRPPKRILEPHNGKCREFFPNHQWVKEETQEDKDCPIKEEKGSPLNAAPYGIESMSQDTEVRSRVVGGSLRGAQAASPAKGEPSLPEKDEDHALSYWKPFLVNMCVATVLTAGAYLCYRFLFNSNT
Source text: First, we used the cellular thermal shift assay (CETSA) to show whether CNBCA binds to endogenous full-length SHP2 under cellular contexts. The CETSA assay is based on the principle that specific inhibitors bind to a target protein and confer relative stability from heat-induced denaturation and precipitation when compared to a nontarget protein present in the same milieu.[34] Accordingly, we performed CETSA to test the effect of CNBCA on the SHP2 protein stability and compared it with the nontarget PTP1B protein as described in the materials and methods.
After heat treatment, supernatants were analyzed by immunoblotting (IB) for SHP2 and the nontarget phosphatase PTP1B. […] To provide semiquantitative data, band densities of both SHP2 and PTP1B were measured and presented as bar graph. […] On the other hand, the nontarget protein PTP1B was reduced to approximately 50% at 49 °C, to 25% at 55 °C, and to less than 10% at 58 °C (Figure 3B and D).
For the CETSA study, total protein extracts (TPE) prepared from two breast cancer cells, the triple-negative MDA-MB468 and the HER2-positive JIMT-1 cells, were used. Briefly, TPE from the two cell lines were cleared by centrifugation, mixed with CNBCA at 100 μM concentration (the maximum amount used in the IC50 studies), and incubated for 10 min at room temperature to allow binding. The mixture was then divided into 100 μL aliquots, treated with heat for 10 min at different temperatures, ranging from 37 to 64 °C that differ by 3 °C intervals, cooled on ice for 10 min, centrifuged at 20,000g for 20 min to remove precipitated proteins, and the supernatants analyzed by immunoblotting (IB) for SHP2 and the nontarget PTP, PTP1B. Aliquots that were mixed with CNBCA, but not treated with heat were used as positive controls for comparison.

MDA-MB468 cells = experiment: Basal pAkt and pERK1/2 signaling by immunoblotting in MDA-MB468 cells; type: cell-based; conditions: Homo sapiens, MDA-MB-468; MDA-MB468, 48 h treatment, band density pAkt and pERK1/2; read-out: IC50 for SHP2 mediated Akt and ERK1/2 activation
Method: Since SHP2 is an essential mediator of mitogenic and cell survival signaling in breast cancer cells, we determined the effect of CNBCA treatment on activation of ERK1/2 and Akt in the HER2-positive BT474 and in the triple-negative MDA-MB468 cell lines. Cells growing in 2D culture were treated with varying concentrations of CNBCA, ranging from 0.250 to 2.0 μM, for 48 h, and total cell lysates were analyzed by immunoblotting (IB) with antibodies that recognize the activated forms of ERK1/2 (pERK1/2) and Akt (pAkt).

CCCCCCCCCOc1ccc(-c2ccc(C(=O)O)cc2)cc1CCCC(=O)O [CNBCA, 3′-(3-carboxypropyl)-4′-(nonyloxy)-[1,1′-biphenyl]-4-carboxylic acid]
mechanism of inhibition (SHP2): competitive inhibitor | PTP1B remaining in solution (band density) (PTP1B; heat 49 °C 10 min): approximately 50% | PTP1B remaining in solution (band density) (PTP1B; heat 55 °C 10 min): 25% | PTP1B remaining in solution (band density) (PTP1B; heat 58 °C 10 min): less than 10% | IC50 (MDA-MB468 cells): ~1000 nM

Reference: publication PMC10591299, “Targeting SHP2 with an Active Site Inhibitor Blocks Signaling and Breast Cancer Cell Phenotypes” (ACS Bio & Med Chem Au, 2023)
